Test results reported in ChEMBL document CHEMBL3885861, “Open TG-GATES”.

Organism: Rattus norvegicus
Assay: Open TG-GATES - Regimen: Single
Format: toxicity, organism-based, Sprague-Dawley
Design: regimen Single, gender Male, age 6 weeks
Settings: in vivo, po, 30 mg/kg, route gavage, dose level Low; for APTT / Bas / Eos / Fbg / Hb / Ht / Lym / MCH / MCHC / MCV / Mono / Neu / PT / Plat / RBC / Ret / WBC: tissue Blood; for KIDNEY_L / KIDNEY_R / KIDNEY_TOTAL: tissue Kidney; for LIVER: tissue Liver; for A/G / ALP / ALT / AST / BUN / CRE / Ca / Cl / DBIL / GLC / IP / K / LDH / Na / PL / RALB / TBIL / TC / TG / TP / gamma-GTP: tissue Plasma

## Cc1ccc(C)c(OCCCC(C)(C)C(=O)O)c1 [GEMFIBROZIL]
3 h
  TERMINAL_BW: 219.6 g
  APTT: 16 s
  Bas: 0%
  Eos: 0.6%
  Fbg: 282.6 mg/dL
  Hb: 14.2 g/dL
  Ht: 41%
  Lym: 79.2%
  MCH: 22.1 pg
  MCHC: 34.7%
  MCV: 63.6 fL
  Mono: 2.8%
  Neu: 16.6%
  PT: 12.4 s
  Plat: 113.5 x10_4/uL
  RBC: 644.2 x10_4/ul
  Ret: 7%
  WBC: 92.7 x10_2/uL
  KIDNEY_L: 0.9 g
  KIDNEY_R: 0.9 g
  KIDNEY_TOTAL: 1.8 g
  LIVER: 9.1 g
  A/G: 0.9
  ALP: 1552.4 IU/L
  ALT: 48.6 IU/L
  AST: 74.6 IU/L
  BUN: 11.6 mg/dL
  CRE: 0.2 mg/dL
  Ca: 11.2 mg/dL
  Cl: 106.8 meq/L
  DBIL: 0.046 mg/dL
  GLC: 181 mg/dL
  IP: 9.7 mg/dL
  K: 4 meq/L
  LDH: 60.8 IU/L
  Na: 141.6 meq/L
  PL: 156.2 mg/dL
  RALB: 2.6 g/dL
  TBIL: 0.048 mg/dL
  TC: 70 mg/dL
  TG: 141.4 mg/dL
  TP: 5.5 g/dL
  gamma-GTP: 1 IU/L
6 h
  TERMINAL_BW: 221.2 g
  APTT: 15.2 s
  Bas: 0%
  Eos: 0.6%
  Fbg: 335.6 mg/dL
  Hb: 14.3 g/dL
  Ht: 41.1%
  Lym: 78.6%
  MCH: 22.1 pg
  MCHC: 34.9%
  MCV: 63.4 fL
  Mono: 2.4%
  Neu: 17.6%
  PT: 12.3 s
  Plat: 122 x10_4/uL
  RBC: 649.2 x10_4/ul
  Ret: 6.8%
  WBC: 75.7 x10_2/uL
  KIDNEY_L: 1 g
  KIDNEY_R: 0.9 g
  KIDNEY_TOTAL: 1.9 g
  LIVER: 9.2 g
  A/G: 0.9
  ALP: 1429.6 IU/L
  ALT: 41 IU/L
  AST: 75 IU/L
  BUN: 10.4 mg/dL
  CRE: 0.2 mg/dL
  Ca: 11.3 mg/dL
  Cl: 107.2 meq/L
  DBIL: 0.044 mg/dL
  GLC: 188 mg/dL
  IP: 10.4 mg/dL
  K: 4.2 meq/L
  LDH: 60.6 IU/L
  Na: 142.2 meq/L
  PL: 150.4 mg/dL
  RALB: 2.7 g/dL
  TBIL: 0.054 mg/dL
  TC: 77.2 mg/dL
  TG: 90.2 mg/dL
  TP: 5.6 g/dL
  gamma-GTP: 1.6 IU/L
9 h
  TERMINAL_BW: 224 g
  APTT: 15 s
  Bas: 0%
  Eos: 0.8%
  Fbg: 313 mg/dL
  Hb: 13.8 g/dL
  Ht: 40.2%
  Lym: 76.8%
  MCH: 21.3 pg
  MCHC: 34.3%
  MCV: 62 fL
  Mono: 3.4%
  Neu: 18%
  PT: 12 s
  Plat: 106.6 x10_4/uL
  RBC: 649.2 x10_4/ul
  Ret: 7.1%
  WBC: 68.1 x10_2/uL
  KIDNEY_L: 0.9 g
  KIDNEY_R: 0.9 g
  KIDNEY_TOTAL: 1.9 g
  LIVER: 8.6 g
  A/G: 0.9
  ALP: 1676.4 IU/L
  ALT: 38 IU/L
  AST: 69.2 IU/L
  BUN: 11.8 mg/dL
  CRE: 0.2 mg/dL
  Ca: 10.9 mg/dL
  Cl: 107 meq/L
  DBIL: 0.046 mg/dL
  GLC: 189.2 mg/dL
  IP: 11.3 mg/dL
  K: 3.8 meq/L
  LDH: 52.8 IU/L
  Na: 143.4 meq/L
  PL: 147 mg/dL
  RALB: 2.6 g/dL
  TBIL: 0.05 mg/dL
  TC: 78.6 mg/dL
  TG: 66.4 mg/dL
  TP: 5.4 g/dL
  gamma-GTP: 1 IU/L
24 h
  TERMINAL_BW: 227.1 g
  APTT: 14.5 s
  Bas: 0%
  Eos: 1%
  Fbg: 284.8 mg/dL
  Hb: 13.8 g/dL
  Ht: 39.8%
  Lym: 75.6%
  MCH: 22.3 pg
  MCHC: 34.7%
  MCV: 64.3 fL
  Mono: 2.4%
  Neu: 20.6%
  PT: 12.1 s
  Plat: 112.3 x10_4/uL
  RBC: 620 x10_4/ul
  Ret: 7.1%
  WBC: 70.3 x10_2/uL
  KIDNEY_L: 1 g
  KIDNEY_R: 1 g
  KIDNEY_TOTAL: 2 g
  LIVER: 10.5 g
  A/G: 0.9
  ALP: 1729.6 IU/L
  ALT: 47.4 IU/L
  AST: 70.4 IU/L
  BUN: 16 mg/dL
  CRE: 0.2 mg/dL
  Ca: 11.3 mg/dL
  Cl: 106.4 meq/L
  DBIL: 0.044 mg/dL
  GLC: 191 mg/dL
  IP: 7.7 mg/dL
  K: 4.5 meq/L
  LDH: 63.6 IU/L
  Na: 142.2 meq/L
  PL: 137.6 mg/dL
  RALB: 2.7 g/dL
  TBIL: 0.036 mg/dL
  TC: 68.6 mg/dL
  TG: 100.6 mg/dL
  TP: 5.6 g/dL
  gamma-GTP: 0.8 IU/L
